Experiments:
BT474C cells = test: Test (e) BT474C cell proliferation assay; type: cell-based; details: Homo sapiens, 96 h, four-day MTS assay, read-out: IC50 Test (e): Inhibition of proliferation of BT474C cells
Excerpt: The BT-474 tumour cell line (human mammary carcinoma) was obtained from Dr Baselga (at Laboratorio Recerca Oncologica, Paseo Vall D'Hebron 119-129, Barcelona 08035, Spain). This cell line was subcloned and a certain population (hereinafter referred to as “BT474C”) was obtained.
e) BT474C Cell Proliferation Assay
BT474C cells are a sub-cloned population of in vivo competent cells, as discussed above.
The BT474C assay is a MTS (3-(4,5-dimethylthiazol-2-yl)-5-(3-carboxymethoxyphenyl)-2-(4-sulfophenyl)-2H-tetrazolium, inner salt—Promega G1111) endpoint-based cell proliferation assay, which measures the ability of a test compound to inhibit the proliferation of cells over a four-day period. […] Cell density is measured using a haemocytometer and viability is calculated using Trypan Blue solution before being further diluted in Assay Medium and seeded at a density of 1×10^4 cells per well (in 100 μl) into clear bottomed 96 well plates (Costar 3598). […] The plate is read at 490 nm on a spectrophotometer.
Assay plates are left at 37° C. for 4 days and then treated with MTS solution (as above), which is converted to a soluble formazan product by active cells. After incubating the plates for 2 hours the reaction is stopped by the addition of 10% SDS (Sodium dodecyl sulphate) and the plates are read at 490 nm on a spectrophotometer giving absorbance values relative to the concentration of converted dye. […]

EGFR tyrosine kinase = molecular target: T1, EGFR tyrosine kinase (Homo sapiens, UniProt P00533); test: Test (a) protein tyrosine kinase phosphorylation assay, EGFR; type: biochemical; details: read-out: IC50 Test (a): Inhibition of EGFR tyrosine kinase protein phosphorylation
T1 construct: Recombinant intracellular fragments of EGFR, erbB2 and erbB4; made in house; host or cells: baculovirus/Sf21 insect cells (cleared lysate used)
Experimental: (§1) a) Protein Tyrosine Kinase phosphorylation Assays
(§2) This test measures the ability of a test compound to inhibit the phosphorylation of a tyrosine containing polypeptide substrate by EGFR, erbB2 and erbB4 tyrosine kinase enzyme.
(§3) Recombinant intracellular fragments of EGFR, erbB2 and erbB4 (accession numbers X00588, X03363 and L07868 respectively) were cloned and expressed in the baculovinis/Sf21 system. […]
(§4) Constitutive kinase activity of these recombinant proteins was determined by their ability to phosphorylate a synthetic peptide (made up of a random co-polymer of Glutamic Acid, Alanine and Tyrosine in the ratio of 6:3:1). […]
(§5) The immobilised phospho-peptide product of the reaction was detected by immunological methods. […] After further washing, HRP activity in each well of the plate was measured colorimetrically using 22′-Azino-di-[3-ethylbenzthiazoline sulfonate (6)]diammonium salt crystals (ABTS™ from Roche) as a substrate.
(§6) Quantification of colour development and thus enzyme activity was achieved by the measurement of absorbance at 405 nm on a Molecular Devices ThermoMax microplate reader. Kinase inhibition for a given compound was expressed as an IC50 value. […] The range of phosphorylation was calculated from the positive (vehicle plus ATP) and negative (vehicle minus ATP) control values.

erbB2 tyrosine kinase = molecular target: T2, erbB2 tyrosine kinase (Homo sapiens, UniProt P04626); test: Test (a) protein tyrosine kinase phosphorylation assay, erbB2; type: biochemical; details: read-out: IC50 Test (a): Inhibition of erbB2 tyrosine kinase protein phosphorylation
T2 construct: Recombinant intracellular fragments of EGFR, erbB2 and erbB4; made in house; host or cells: baculovirus/Sf21 insect cells (cleared lysate used)
Experimental: as §1, §2, §3, §4, §5, §6

T2 sequence (P04626 676-1255 limits assumed): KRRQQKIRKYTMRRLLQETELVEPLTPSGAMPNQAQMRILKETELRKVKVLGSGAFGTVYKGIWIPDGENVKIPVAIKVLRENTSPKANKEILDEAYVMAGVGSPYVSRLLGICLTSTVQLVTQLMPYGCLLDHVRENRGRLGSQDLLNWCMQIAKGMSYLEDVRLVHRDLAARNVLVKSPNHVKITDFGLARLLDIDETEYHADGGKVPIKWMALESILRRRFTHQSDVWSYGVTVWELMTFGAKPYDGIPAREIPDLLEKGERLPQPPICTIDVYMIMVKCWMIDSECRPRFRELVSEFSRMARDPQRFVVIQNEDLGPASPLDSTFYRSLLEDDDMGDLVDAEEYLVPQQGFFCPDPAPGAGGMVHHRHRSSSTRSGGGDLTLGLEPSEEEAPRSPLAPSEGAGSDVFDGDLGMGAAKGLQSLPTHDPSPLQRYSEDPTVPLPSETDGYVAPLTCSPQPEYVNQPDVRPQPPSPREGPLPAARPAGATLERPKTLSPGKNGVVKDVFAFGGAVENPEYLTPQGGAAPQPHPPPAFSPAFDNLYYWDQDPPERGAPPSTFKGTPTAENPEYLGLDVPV
T1 sequence (P00533 669-1210 limits assumed): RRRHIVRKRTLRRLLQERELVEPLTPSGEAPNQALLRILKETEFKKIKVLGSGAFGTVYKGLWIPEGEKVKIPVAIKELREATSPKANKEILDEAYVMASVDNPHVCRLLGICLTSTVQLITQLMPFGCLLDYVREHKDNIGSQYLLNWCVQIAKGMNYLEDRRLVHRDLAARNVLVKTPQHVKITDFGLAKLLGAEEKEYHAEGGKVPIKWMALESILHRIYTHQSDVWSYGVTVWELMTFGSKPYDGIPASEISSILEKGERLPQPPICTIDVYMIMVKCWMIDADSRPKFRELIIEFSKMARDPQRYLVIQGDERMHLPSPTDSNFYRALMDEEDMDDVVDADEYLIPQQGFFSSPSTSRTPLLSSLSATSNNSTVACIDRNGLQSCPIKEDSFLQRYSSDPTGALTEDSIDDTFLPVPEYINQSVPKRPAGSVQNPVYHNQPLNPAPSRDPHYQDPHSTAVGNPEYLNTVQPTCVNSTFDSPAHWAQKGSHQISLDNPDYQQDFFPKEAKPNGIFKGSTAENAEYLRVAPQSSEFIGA

| IC50 (BT474C cells) | IC50 (EGFR tyrosine kinase) | IC50 (erbB2 tyrosine kinase) | SMILES |
| --- | --- | --- | --- |
| 337 nM | 362 nM | 8 nM | C[C@@H](Oc1cccc2ncnc(Nc3ccc(OCC4CCCO4)c(Cl)c3)c12)C(=O)N1CCOCC1 (stereo partly drawn) [Example 2, N-[3-chloro-4-(tetrahydrofuran-2-ylmethoxy)phenyl]-5-[(1R)-1-methyl-2-morpholin-4-yl-2-oxoethoxy]quinazolin-4-amine] |
| 418 nM | 169 nM | 3 nM | CSCCCOc1ccc(Nc2ncnc3cccc(O[C@H](C)C(=O)N4CCOCC4)c23)cc1Cl [Example 3, N-{3-chloro-4-[3-(methylthio)propoxy]phenyl}-5-[(1R)-1-methyl-2-morpholin-4-yl-2-oxoethoxy]quinazolin-4-amine] |
